Test results: patent publication US20090099218A1, “SYNTHESIS OF NOVEL TUBULIN POLYMERIZATION INHIBITORS: BENZOYLPHENYLUREA (BPU) SULFUR ANALOGS” (priority 2007, published 2009)

Tests used:
Miapaca2 = experiment: MTT growth inhibition, pancreatic cell line Miapaca2; format: cell-based; details: for IC50: Homo sapiens, MIA PaCa-2, MTT assay, 96 h treatment, average of three independent experiments
Protocol: (§1) Eight of these analogs 6d, 6h, 6n, 6g, 7b, 7d, 8g, and 8h were tested for their cytotoxicity in seven pancreatic cell lines ASPC1, Panc1, Panc203, Panc430, Pane 1005, MiaPaca2, and HS766T using MTT assay. Cells were trypsinized, seeded at 5×10^3 cells/well in 96-well plate and allowed to grow for 24 hours before the treatment with exponential increasing concentrations of drugs in the presence of 10% FBS. After a 96-hours period of treatment, 20 μl of MTT solution (5 mg/ml in PBS) were added to each well, and the plates were then incubated for 3 hours at 37° C. Medium was then replaced with 100 μl of DMSO per well. Plates were shaken and the optical density was measured at 570 nm using a multiwell plate reader (Bio-Rad, Model 550, Bio-Rad Inc., Hercules, Calif.). Each experiment was performed in triplicate for each drug concentration and was carried out independently at least 3 times. The IC50 value was defined as the concentration needed for a 50% reduction in the absorbance calculated based on the survival curves. Response to drug treatment was assessed by standardizing treatment groups to untreated controls. Compounds activity was compared with compound 1.
(§2) Table 2 (Growth Inhibition of Pancreatic Cancer Cell Lines by BPU and BPTU Analogues (IC50) a) compares the cytotoxicity of a series of new derivatives against a panel of seven pancreatic cancer cell lines, as determined by MTT assay. See, Mosmann, T., J. Immunol. Methods 65:55-63 (1983).

Panc203 = experiment: MTT growth inhibition, pancreatic cell line Panc203; format: cell-based; details: Panc203; for IC50: Homo sapiens, MTT assay, 96 h treatment, average of three independent experiments
Protocol: as §1, §2

Panc1005 = experiment: MTT growth inhibition, pancreatic cell line Panc1005; format: cell-based; details: Homo sapiens, Panc1005; MTT assay, 96 h treatment; average of three independent experiments
Protocol: as §1, §2

LnCaP = experiment: MTT growth inhibition, prostate cancer cell line LnCaP; format: cell-based, human; details: for IC50: Homo sapiens, LNCaP, MTT assay, average of three independent experiments
Protocol: (§3) This MTT assay was carried using human prostate cancer cell lines CWR22R, LAPC-4 and LnCap using Promega cell titer 96 nonradioactive cell proliferation kits. Cells were trypsinized and centrifuged at 1000 rpm for 5 minutes and the supernatant was aspirated. Cells were resuspended with HBSS to a concentration of 10^6/ml. Cell suspension was diluted in serum containing medium to plate 2000 cells/well/0.2 ml. Cell suspension was transferred to sterile solution basin. Cells were plated using multichannel pipette set at 200 μl and incubated overnight for attachment. One plate was prepared for day 0 MTT assay as follows: 100 μl of media was removed from each well using multichannel pipette and 15 μl of MTT reagent was added. Plates were incubated at 37° C. for 4 hrs. […] of STOP solution was added to each well and incubated at room temperature for 1 hour. Absorbance was measured at 570 and 650 nm on plate reader. All the media from the remaining plates were carefully removed and the cells were treated with the media containing drug. MTT assays were done on days 0, 3, 5 and 7. In the preliminary screening […] BPU sulfur analogs 6l, 6h, 6n, 7d and 8h were screened and their activity was compared with compound 1.
(§4) Compounds with significant inhibitory activity in pancreatic cancer cells were further evaluated against prostate cancer cell lines in the MTT assay, (Mosmann, T., J. Immunol. Methods 65:55-63 (1983)) and the results were compared to those for compound 1 (Table 3).

Panc1 = experiment: MTT growth inhibition, pancreatic cell line Panc1; format: cell-based; details: for IC50: Homo sapiens, PANC-1, MTT assay, 96 h treatment, average of three independent experiments
Protocol: as §1, §2

LAPC-4 = experiment: MTT growth inhibition, prostate cancer cell line LAPC-4; format: cell-based, human; details: for IC50: Homo sapiens, LAPC4, MTT assay, average of three independent experiments
Protocol: as §3, §4

tubulin = experiment: Inhibition of tubulin polymerization; format: biochemical; details: for IC50: Tubulin was at 10 μM, read-out: tubulin IC50 ± SD (inhibition of tubulin polymerization)
Protocol: Briefly, tubulin polymerization was followed turbidimetrically at 350 nm in Beckman model DU7400 and DU7500 recording spectrophotometers equipped with electronic temperature controllers. […] Samples were pre-incubated for 15 min at 30° C. and chilled on ice. GTP (final concentration, 0.4 mmol/L) was added to each reaction mixture, and these were placed in cuvettes held at 0° C. Baselines were established, the temperature was raised to 30° C.

[1] = test system: prostate cancer cell lines CWR22R, LAPC-4 and LnCap; experiment: MTT growth inhibition, prostate cancer cell line panel; format: cell-based, human; details: for potency relative to compound 1, prostate cell lines (preliminary screening): CWR22R, LAPC-4, LnCap
Protocol: as §3

| Compound | IC50 (Miapaca2) | increase in potency over 6m (Miapaca2; Mia-paca2) | IC50 (Panc203) | increase in potency over 6m (Panc203) | IC50 (Panc1005) | IC50 (LnCaP) | increase in potency over 6m (LnCaP; LnCap) | IC50 (Panc1) | increase in potency over 6m (Panc1; Panc1) | IC50 (LAPC-4) | potency as inhibitor of tubulin assembly relative to 7d (tubulin) | IC50 (tubulin) | potency relative to compound 1, prostate cell lines (preliminary screening) [1] | IC50 ([1]; Homo sapiens, all prostate cell lines, read-out: IC50 against all prostate cell lines) | increase in activity compared to 7c (Miapaca2; Miapaca2) | increase in activity compared to 7c (Panc203) | increase in activity compared to 7c (Panc1; Panc1) | increase in activity compared to 7c (LAPC-4; LAPC-4) |
| --- | --- | --- | --- | --- | --- | --- | --- | --- | --- | --- | --- | --- | --- | --- | --- | --- | --- | --- |
| O=C(NC(=O)c1ccccc1[N+](=O)[O-])Nc1ccc(Sc2ncc(Br)cn2)cc1 [Compound 6n, 1-[4-(5-Bromopyrimidin-2-ylsulfanyl)phenyl]-3-(2-nitrobenzoyl)-urea] | 86 nM | 8 fold | 700 nM | 14 fold | 10000 nM | 50 nM | 20 fold | 85 nM | 8 fold | 50 nM | twice as potent | 2100 nM | 20 times | 50 nM | – | – | – | – |
| Nc1ccccc1C(=O)NC(=O)Nc1ccc(Sc2ncc(Br)cn2)cc1 [Compound 7d] | 95 nM | – | 85 nM | – | 10000 nM | 500 nM | – | 90 nM | – | 100 nM | – | > 40000 nM | 20 times | – | 9 fold | > 117 fold | 39 fold | 7 fold |
